Our source for the IC50 values is US5314901A, “1,2,5,6-tetrahydropyridine oxime compounds” (Beecham Group p.l.c., priority 1990, dated 1994).

Structures can show the parent of a compound that is named as a salt.

The target of assay [1] is muscarinic receptors (3H-OXO-M), cerebral cortex. As to the kind of experiment: Radio ligand binding: displacement of the muscarinic agonist 3H-Oxotremorine-M (3H-OXO-M) from rat cerebral cortex membranes. The arrangement: species or system Hooded Lister rats. Conditions: displacement of 2 nM 3H-OXO-M (muscarinic agonist), 2 mM magnesium chloride, 37° C., 30 min.
Assay [2] concerns the target muscarinic receptors (3H-QNB), cerebral cortex. The experiment in a line: Radio ligand binding: displacement of the muscarinic antagonist 3H-Quinuclidinyl Benzilate (3H-QNB) from rat cerebral cortex membranes. Further details: species or system Hooded Lister rats. The conditions noted are these: displacement of 0.27 nM 3H-QNB (muscarinic antagonist), 37° C., 30 min.

One may read the IC50 as the concentration that inhibits the measured activity by half. A low value points to inhibition by little substance. Take `CON=C(Cl)C1=CCCN(C)C1` [E 1, 1-Methyl-1,2,5,6-tetrahydropyridin-3-yl-N-methoxycarboximidoyl chloride oxalate salt]: the values for the half-maximal inhibitory concentration (IC50) in assay [1] and in assay [2] were 259 nM and 2800 nM, respectively.

On to `CON=C(F)C1=CCCN(C)C1` [E 2, 1-Methyl-1,2,5,6-tetrahydropyridin-3-yl-N-methoxycarboximidoyl fluoride oxalate salt], for which the 50% inhibitory concentration (IC50) worked out at 39 nM in assay [1] and 1500 nM in assay [2]. On the same counts, the results for `CON=C(C#N)C1=CCCN(C)C1` [E 3, α-(Methoxyimino)-α-(1-methyl-1,2,5,6-tetrahydropyridin-3-yl) acetonitrile oxalate salt] are 215 nM and 9500 nM. On the same counts, the results for `CON=C(C1=CCCN(C)C1)C(F)(F)F` [E 4, E- and Z-1-Methyl-3-(α,α,α-trifluoroacetyl)-1,2,5,6-tetrahydropyridine-O-methyl oxime oxalate salt] are 225 nM and 16500 nM. As for `CON=C(C1=CCCN(C)C1)C(F)F` [E 5, E- and Z-1-Methyl-3-(α,α-difluoroacetyl)-1,2,5,6-tetrahydropyridine-O-methyl oxime oxalate salt], the IC50 in assay [1] was 1250 nM. As to `CO/N=C(\CF)C1=CCCN(C)C1` [E 6, Z-1-Methyl-3-(α-fluoroacetyl)-1,2,5,6-tetrahydropyridine-O-methyl oxime oxalate salt], the half-maximal inhibitory concentration (IC50) was determined as 620 nM in assay [1] and 8500 nM in assay [2]. On the same counts, the results for `CO/N=C(\CF)C1=CCCNC1` [E 7, Z-3-(α-Fluoroacetyl)-1,2,5,6-tetrahydropyridine-O-methyl oxime hydrochloride salt] are 420 nM and 17000 nM. Taken in the same sequence, the figures for `CON=C(F)C1=CCCNC1` [E 8, 1,2,5,6-Tetrahydropyridin-3-yl-N-methoxycarboximidoyl fluoride oxalate salt] were 41 nM and 2850 nM.

For the compound `CON=C(Cl)C1=CCCNC1` [E 9, 1,2,5,6-Tetrahydropyridin-3-yl-N-methoxycarboximidoyl chloride oxalate salt], the IC50 in assay [1] came to 180 nM; in assay [2], 4700 nM.

For `CON=C(C#N)C1=CCCNC1` [E 10, α-(Methoxyimino)-α-(1,2,5,6-tetrahydropyridin-3-yl)acetonitrileoxalate salt], the values for the IC50 in assay [1] and in assay [2] were 35 nM and 1150 nM, respectively. Regarding `CCN1CCC=C(C(C#N)=NOC)C1` [E 11, α-(Methoxyimino)-α-(1-ethyl-1,2,5,6-tetrahydropyridin-3-yl) acetonitrile oxalate salt], in assay [1], the IC50 came out at 1180 nM.
